Laboratory results from ChEMBL document CHEMBL1138430, “Novel tetrahydroisoquinolines are histamine H3 antagonists and serotonin reuptake inhibitors” (Bioorg Med Chem Lett, 2007).
Calls of active or inactive are those of the source.

What was measured:
[1] = target: Adenosine receptor A2a (Homo sapiens) (UniProt P29274); assay: Binding affinity at adenosine A2A receptor at 1 uM
[2] = target: T1, Alpha-1A adrenergic receptor (Homo sapiens) (UniProt P35348); assay: Binding affinity at adrenergic alpha-1 receptor at 1 uM
T1 sequence (whole entry): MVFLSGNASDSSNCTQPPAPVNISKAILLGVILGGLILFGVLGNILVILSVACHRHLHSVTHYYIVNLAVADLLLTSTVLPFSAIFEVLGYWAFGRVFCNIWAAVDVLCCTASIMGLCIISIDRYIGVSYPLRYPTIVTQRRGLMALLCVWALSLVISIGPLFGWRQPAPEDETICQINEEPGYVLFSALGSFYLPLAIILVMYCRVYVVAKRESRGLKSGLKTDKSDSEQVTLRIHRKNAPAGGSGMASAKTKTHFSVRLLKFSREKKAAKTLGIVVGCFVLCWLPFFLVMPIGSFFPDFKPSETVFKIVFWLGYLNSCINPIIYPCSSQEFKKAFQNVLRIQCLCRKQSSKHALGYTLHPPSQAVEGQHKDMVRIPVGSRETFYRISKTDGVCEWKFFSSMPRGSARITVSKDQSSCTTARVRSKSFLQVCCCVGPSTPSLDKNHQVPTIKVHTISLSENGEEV

[3] = target: D(2) dopamine receptor (Homo sapiens) (UniProt P14416); assay: Binding affinity at dopamine D2 receptor at 1 uM
Chain of D(2) dopamine receptor (Homo sapiens) (P14416 whole entry): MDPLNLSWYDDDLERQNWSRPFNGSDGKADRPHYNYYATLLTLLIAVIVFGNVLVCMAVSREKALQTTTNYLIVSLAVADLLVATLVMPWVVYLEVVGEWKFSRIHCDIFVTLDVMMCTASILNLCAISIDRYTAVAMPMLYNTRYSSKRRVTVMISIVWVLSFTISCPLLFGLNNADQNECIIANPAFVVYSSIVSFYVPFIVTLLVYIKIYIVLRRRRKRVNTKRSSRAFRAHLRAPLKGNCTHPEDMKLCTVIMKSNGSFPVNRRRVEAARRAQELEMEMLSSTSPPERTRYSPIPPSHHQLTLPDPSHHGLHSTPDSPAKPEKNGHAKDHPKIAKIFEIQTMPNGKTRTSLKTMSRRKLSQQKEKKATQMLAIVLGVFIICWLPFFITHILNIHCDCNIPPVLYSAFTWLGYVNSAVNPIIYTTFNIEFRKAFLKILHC

[4] = target: T2, B2 bradykinin receptor (Homo sapiens) (UniProt P30411); assay: Binding affinity at bradykinin B2 receptor at 1 uM
T2 sequence (whole entry): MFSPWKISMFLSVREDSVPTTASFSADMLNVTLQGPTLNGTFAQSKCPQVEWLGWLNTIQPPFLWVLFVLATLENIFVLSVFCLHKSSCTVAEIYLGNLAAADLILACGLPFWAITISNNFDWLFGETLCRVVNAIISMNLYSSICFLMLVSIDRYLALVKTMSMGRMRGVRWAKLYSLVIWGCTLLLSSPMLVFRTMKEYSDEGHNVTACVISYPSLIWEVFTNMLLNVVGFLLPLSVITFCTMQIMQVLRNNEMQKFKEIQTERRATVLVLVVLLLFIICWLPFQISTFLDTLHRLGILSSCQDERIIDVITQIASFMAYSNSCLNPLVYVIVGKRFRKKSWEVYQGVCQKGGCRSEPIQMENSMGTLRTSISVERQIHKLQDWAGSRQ

[5] = target: T3, Cholecystokinin receptor type A (Homo sapiens) (UniProt P32238); assay: Binding affinity at CCKA receptor at 1 uM
T3 sequence (whole entry): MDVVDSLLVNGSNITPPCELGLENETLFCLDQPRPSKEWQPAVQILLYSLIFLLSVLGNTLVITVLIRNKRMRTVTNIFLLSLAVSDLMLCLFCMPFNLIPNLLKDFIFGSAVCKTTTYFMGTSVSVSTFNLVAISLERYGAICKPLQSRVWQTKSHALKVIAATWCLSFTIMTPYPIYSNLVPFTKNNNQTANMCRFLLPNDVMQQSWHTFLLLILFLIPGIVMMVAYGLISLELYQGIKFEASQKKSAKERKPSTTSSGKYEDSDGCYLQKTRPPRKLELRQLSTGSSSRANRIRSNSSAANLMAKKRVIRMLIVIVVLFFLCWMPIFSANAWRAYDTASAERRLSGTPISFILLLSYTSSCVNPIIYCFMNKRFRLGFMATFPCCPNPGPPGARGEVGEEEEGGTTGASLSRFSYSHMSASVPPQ

Homo sapiens [6] = organism: Homo sapiens; assay: Binding affinity at ML1 receptor at 1 uM
[7] = target: T4, Muscarinic acetylcholine receptor M2 (Homo sapiens) (UniProt P08172); assay: Binding affinity at muscarinic M2 receptor at 1 uM
T4 sequence (whole entry): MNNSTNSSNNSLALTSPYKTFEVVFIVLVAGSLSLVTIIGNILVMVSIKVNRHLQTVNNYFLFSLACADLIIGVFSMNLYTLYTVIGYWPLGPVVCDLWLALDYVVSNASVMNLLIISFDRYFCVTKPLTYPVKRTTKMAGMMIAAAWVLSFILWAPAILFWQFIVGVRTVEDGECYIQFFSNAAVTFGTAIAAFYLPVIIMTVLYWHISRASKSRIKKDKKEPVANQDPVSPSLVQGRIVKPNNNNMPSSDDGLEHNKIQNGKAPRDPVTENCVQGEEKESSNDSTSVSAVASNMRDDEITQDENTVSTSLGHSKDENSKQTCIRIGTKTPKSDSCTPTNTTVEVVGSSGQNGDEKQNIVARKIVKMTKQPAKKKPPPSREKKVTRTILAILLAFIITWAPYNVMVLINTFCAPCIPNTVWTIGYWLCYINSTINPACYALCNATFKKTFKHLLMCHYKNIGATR

[8] = target: Muscarinic acetylcholine receptor M3 (Homo sapiens) (UniProt P20309); assay: Binding affinity at muscarinic M3 receptor at 1 uM
Chain of Muscarinic acetylcholine receptor M3 (Homo sapiens) (P20309 whole entry, looked up): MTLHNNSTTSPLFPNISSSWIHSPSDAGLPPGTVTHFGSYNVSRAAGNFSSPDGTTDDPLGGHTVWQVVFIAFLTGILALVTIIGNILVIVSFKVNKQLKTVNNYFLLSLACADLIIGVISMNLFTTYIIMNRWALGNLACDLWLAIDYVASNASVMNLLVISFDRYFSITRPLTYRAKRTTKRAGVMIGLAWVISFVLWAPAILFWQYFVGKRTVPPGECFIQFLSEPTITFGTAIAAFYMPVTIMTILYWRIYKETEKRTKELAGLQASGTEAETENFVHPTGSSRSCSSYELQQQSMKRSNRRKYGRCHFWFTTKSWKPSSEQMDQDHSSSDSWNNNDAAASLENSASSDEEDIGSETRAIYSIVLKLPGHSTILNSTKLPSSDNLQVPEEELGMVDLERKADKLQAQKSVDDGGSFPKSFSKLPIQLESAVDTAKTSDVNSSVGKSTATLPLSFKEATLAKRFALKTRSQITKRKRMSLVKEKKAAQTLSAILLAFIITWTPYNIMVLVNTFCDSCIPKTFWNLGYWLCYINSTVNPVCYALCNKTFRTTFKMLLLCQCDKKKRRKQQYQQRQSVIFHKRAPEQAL

[9] = target: Mu-type opioid receptor (Homo sapiens) (UniProt P35372); assay: Binding affinity at MOP receptor at 1 uM
Chain of Mu-type opioid receptor (Homo sapiens) (P35372 whole entry): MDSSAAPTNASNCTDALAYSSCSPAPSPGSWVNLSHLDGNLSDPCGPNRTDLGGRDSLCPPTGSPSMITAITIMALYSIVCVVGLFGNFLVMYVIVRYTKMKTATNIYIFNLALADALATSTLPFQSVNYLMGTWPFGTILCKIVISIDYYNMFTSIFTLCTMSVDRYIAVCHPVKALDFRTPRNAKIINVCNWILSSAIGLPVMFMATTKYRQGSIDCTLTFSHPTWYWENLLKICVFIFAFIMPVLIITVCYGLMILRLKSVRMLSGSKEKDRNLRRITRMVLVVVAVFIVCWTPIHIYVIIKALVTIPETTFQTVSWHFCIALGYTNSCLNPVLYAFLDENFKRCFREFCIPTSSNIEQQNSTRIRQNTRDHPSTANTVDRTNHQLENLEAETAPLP

[10] = target: Delta-type opioid receptor (Homo sapiens) (UniProt P41143); assay: Binding affinity at DOP receptor at 1 uM
Chain of Delta-type opioid receptor (Homo sapiens) (P41143 whole entry): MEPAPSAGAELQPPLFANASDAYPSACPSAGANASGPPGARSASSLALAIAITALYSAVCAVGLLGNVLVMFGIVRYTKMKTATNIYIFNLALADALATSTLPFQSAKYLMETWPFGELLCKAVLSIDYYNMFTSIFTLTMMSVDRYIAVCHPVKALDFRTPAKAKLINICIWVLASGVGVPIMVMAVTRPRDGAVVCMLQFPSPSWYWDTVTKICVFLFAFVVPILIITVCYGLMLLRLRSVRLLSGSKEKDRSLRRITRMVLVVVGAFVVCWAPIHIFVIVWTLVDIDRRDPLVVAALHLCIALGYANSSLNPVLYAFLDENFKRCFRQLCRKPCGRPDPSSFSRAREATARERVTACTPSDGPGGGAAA

[11] = target: T5, 5-hydroxytryptamine receptor 1A (Homo sapiens) (UniProt P08908); assay: Binding affinity at 5HT1A receptor at 1 uM
T5 sequence (whole entry): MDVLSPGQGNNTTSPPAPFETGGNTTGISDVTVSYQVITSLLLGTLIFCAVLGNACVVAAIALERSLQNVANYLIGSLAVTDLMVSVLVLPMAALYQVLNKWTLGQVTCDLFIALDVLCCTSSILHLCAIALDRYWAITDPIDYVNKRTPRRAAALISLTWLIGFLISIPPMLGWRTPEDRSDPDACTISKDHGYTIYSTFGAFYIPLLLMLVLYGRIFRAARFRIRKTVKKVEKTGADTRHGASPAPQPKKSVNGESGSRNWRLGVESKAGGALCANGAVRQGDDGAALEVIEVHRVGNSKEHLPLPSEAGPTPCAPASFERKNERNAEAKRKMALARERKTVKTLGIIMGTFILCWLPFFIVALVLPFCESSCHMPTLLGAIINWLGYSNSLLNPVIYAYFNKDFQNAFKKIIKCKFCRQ

[12] = target: 5-hydroxytryptamine receptor 1B (Homo sapiens) (UniProt P28222); assay: Binding affinity at 5HT1B receptor at 1 uM
Chain of 5-hydroxytryptamine receptor 1B (Homo sapiens) (P28222 whole entry): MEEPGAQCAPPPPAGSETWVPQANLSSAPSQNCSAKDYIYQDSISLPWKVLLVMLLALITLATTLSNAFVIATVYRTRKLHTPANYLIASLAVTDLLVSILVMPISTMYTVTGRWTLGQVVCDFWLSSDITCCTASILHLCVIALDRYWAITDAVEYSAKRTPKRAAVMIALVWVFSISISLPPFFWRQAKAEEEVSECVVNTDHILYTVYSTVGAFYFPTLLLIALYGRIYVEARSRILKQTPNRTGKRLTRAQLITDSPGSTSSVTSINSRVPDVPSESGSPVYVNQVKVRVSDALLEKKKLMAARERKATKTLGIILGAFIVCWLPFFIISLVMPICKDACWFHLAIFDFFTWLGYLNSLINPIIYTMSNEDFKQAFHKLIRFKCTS

[13] = target: 5-hydroxytryptamine receptor 2A (Homo sapiens) (UniProt P28223); assay: Binding affinity at 5HT2A receptor at 1 uM
Chain of 5-hydroxytryptamine receptor 2A (Homo sapiens) (P28223 whole entry): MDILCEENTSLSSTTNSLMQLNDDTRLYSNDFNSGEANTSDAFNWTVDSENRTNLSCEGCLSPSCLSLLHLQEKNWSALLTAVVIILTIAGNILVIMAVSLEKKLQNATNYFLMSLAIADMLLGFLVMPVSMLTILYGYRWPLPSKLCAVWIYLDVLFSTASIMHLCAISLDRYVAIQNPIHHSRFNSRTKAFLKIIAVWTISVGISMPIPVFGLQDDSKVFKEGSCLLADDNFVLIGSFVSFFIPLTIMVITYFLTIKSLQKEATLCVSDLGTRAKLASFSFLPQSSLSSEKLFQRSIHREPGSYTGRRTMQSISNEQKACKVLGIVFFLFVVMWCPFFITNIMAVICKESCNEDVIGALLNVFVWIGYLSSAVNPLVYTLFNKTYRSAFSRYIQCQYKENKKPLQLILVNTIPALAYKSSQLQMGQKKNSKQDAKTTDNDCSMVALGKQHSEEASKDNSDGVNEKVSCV

[14] = target: 5-hydroxytryptamine receptor 6 (Homo sapiens) (UniProt P50406); assay: Binding affinity at 5HT6 receptor at 1 uM
Chain of 5-hydroxytryptamine receptor 6 (Homo sapiens) (P50406 whole entry): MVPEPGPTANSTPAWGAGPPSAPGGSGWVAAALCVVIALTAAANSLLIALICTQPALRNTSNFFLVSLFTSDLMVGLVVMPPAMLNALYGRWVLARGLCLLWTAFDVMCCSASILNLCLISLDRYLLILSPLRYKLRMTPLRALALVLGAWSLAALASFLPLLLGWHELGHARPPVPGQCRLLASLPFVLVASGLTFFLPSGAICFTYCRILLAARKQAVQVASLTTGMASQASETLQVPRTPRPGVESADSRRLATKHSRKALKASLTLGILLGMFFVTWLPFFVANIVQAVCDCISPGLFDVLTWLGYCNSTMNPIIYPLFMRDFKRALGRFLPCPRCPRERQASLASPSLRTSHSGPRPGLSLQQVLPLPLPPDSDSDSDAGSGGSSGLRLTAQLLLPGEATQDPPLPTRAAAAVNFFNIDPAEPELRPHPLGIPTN

[15] = target: 5-hydroxytryptamine receptor 7 (Homo sapiens) (UniProt P34969); assay: Binding affinity at 5HT7 receptor at 1 uM
Chain of 5-hydroxytryptamine receptor 7 (Homo sapiens) (P34969 whole entry): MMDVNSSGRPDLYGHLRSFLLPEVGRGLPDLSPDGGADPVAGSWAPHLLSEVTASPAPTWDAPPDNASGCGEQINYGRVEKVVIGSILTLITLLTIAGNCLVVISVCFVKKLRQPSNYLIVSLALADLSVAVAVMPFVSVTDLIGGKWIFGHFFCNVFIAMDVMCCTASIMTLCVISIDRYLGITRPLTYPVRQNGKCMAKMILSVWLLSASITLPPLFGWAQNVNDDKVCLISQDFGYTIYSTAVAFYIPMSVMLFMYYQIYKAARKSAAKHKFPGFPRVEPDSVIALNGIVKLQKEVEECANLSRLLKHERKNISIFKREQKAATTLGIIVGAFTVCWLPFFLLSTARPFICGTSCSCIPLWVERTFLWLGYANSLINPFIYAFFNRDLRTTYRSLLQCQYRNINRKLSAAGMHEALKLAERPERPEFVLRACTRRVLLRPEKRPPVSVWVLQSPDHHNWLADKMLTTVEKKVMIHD

Homo sapiens [16] = organism: Homo sapiens; assay: Binding affinity at somatostatin receptor at 1 uM
Homo sapiens [17] = organism: Homo sapiens; assay: Binding affinity for sodium channel at 1 uM
Homo sapiens [18] = organism: Homo sapiens; assay: Binding affinity for chloride channel at 1 uM

Measured: Activity

Chain of Adenosine receptor A2a (Homo sapiens) (P29274 whole entry): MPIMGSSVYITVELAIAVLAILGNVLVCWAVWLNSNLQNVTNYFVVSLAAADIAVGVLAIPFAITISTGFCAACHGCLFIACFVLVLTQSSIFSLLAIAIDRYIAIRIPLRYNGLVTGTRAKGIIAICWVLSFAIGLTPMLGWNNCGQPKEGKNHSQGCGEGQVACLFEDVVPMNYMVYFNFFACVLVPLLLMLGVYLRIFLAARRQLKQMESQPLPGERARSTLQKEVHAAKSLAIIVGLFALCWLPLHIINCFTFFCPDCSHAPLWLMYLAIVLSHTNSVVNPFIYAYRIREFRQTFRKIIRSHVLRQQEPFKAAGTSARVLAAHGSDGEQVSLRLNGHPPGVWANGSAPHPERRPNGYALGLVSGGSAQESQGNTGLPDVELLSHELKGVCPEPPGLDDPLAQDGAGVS

COc1ccc([C@@H]2CN(C)Cc3cc(OCCCN4CCOC[C@@H]4C)ccc32)cc1
inactive: all assays above

CSc1ccc(C2CN(C)Cc3cc(OCCCN4CCOCC4)ccc32)cc1 (racemic)
inactive: all assays above

CSc1ccc(C2CN(C)Cc3cc(OCCCN4CCC(F)CC4)ccc32)cc1 (racemic)
inactive: all assays above
